Measurements: ChEMBL document CHEMBL2176914, “Selective histone deacetylase 6 inhibitors bearing substituted urea linkers inhibit melanoma cell growth” (J Med Chem, 2012)
Calls of active or inactive are those of the source. The rule behind the calls is not given here.

Legend:
B16 [1] = assay: Growth inhibition of mouse B16 cells incubated for 48 hrs by MTT assay; format: functional; conditions: for GI50: B16, 48 h
Homo sapiens = organism: Homo sapiens; assay: Selectivity index, ratio of IC50 for human recombinant HDAC1 to IC50 for human recombinant HDAC6
B16 [2] = assay: Inhibition of Class 1 histone deacetylase in mouse B16 cells assessed as increase in histone H3 acetylation at 10 uM incubated for 24 hrs by Western blotting; format: cell-based
B16 [3] = assay: Inhibition of Class 1 histone deacetylase in mouse B16 cells assessed as increase in histone H3 acetylation at 1 uM incubated for 24 hrs by Western blotting; format: cell-based
B16 [4] = assay: Inhibition of Class 1 histone deacetylase in mouse B16 cells assessed as increase in histone H3 acetylation at 1 to 100 nM incubated for 24 hrs by Western blotting; format: cell-based
[5] = target: T1, Protein deacetylase HDAC6 (Mus musculus) (UniProt Q9Z2V5); assay: Inhibition of HDAC6 in mouse B16 cells assessed as increase in acetyl alpha-tubulin level incubated for 24 hrs by Western blotting; format: cell-based
T1 sequence (whole entry): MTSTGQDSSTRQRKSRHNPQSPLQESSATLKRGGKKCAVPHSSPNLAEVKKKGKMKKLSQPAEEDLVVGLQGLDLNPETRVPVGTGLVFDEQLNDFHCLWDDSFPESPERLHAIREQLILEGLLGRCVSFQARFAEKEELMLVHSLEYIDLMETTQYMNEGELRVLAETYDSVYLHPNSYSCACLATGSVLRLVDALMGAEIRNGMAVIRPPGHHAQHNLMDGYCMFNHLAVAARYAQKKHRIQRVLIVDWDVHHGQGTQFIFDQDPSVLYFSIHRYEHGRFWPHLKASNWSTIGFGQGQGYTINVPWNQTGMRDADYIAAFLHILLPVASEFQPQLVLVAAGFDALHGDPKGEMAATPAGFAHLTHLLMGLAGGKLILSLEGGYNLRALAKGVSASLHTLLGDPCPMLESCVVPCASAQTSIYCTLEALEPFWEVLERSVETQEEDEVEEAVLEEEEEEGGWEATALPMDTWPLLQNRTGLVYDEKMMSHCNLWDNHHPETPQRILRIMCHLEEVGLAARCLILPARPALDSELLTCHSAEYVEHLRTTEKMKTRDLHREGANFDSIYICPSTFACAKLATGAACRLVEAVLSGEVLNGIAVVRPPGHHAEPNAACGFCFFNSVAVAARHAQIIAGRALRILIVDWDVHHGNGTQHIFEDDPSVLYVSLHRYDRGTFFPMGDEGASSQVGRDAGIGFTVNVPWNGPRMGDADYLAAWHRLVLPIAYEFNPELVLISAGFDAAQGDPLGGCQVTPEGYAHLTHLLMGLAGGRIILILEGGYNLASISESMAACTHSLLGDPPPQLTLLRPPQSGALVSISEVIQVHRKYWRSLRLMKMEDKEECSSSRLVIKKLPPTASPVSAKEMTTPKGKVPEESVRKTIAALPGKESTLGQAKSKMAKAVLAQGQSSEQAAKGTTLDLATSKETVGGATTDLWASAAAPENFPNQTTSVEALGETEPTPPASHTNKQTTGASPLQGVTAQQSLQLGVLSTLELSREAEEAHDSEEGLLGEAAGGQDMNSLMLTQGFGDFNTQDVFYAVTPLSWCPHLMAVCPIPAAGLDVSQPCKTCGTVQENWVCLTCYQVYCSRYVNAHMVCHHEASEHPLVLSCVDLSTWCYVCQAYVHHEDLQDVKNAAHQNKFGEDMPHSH

## COCCCN(Cc1ccc(C(=O)NO)cc1)C(=O)Nc1ccccc1
B16 [1]
  growth inhibition (GI): Dose-dependent effect
  GI50: 22.2 µM
Homo sapiens
  Ratio IC50: 443

## COc1ccccc1NC(=O)N(CCCO)Cc1ccc(C(=O)NO)cc1
B16 [1]
  growth inhibition (GI): Dose-dependent effect
  GI50: > 100 µM
Homo sapiens
  Ratio IC50: 803

## COCCN(Cc1ccc(C(=O)NO)cc1)C(=O)Nc1ccccc1
B16 [1]
  growth inhibition (GI): Dose-dependent effect
Homo sapiens
  Ratio IC50: 243

## COc1ccccc1NC(=O)N(CCc1ccc(O)cc1)Cc1ccc(C(=O)NO)cc1
B16 [1]
  growth inhibition (GI): Dose-dependent effect
  GI50: 18.4 µM
Homo sapiens
  Ratio IC50: 292

## COc1ccccc1NC(=O)N(CCCN(C)C)Cc1ccc(C(=O)NO)cc1
B16 [1]
  growth inhibition (GI): Dose-dependent effect
  GI50: 75.3 µM
Homo sapiens
  Ratio IC50: 6

## Cc1[nH]c2ccccc2c1CCNCc1ccc(/C=C/C(=O)NO)cc1 [PANOBINOSTAT]
B16 [1]
  growth inhibition (GI): Dose-dependent effect
  GI50: 0.15 µM

## COCCCN(C(=O)NCc1ccc(C(=O)NO)cc1)c1ccccc1
B16 [1]
  growth inhibition (GI): Dose-dependent effect
  GI50: > 100 µM
Homo sapiens
  Ratio IC50: 226

## CCCCN(C(=O)NCc1ccc(C(=O)NO)cc1)c1ccccc1
B16 [1]
  growth inhibition (GI): Dose-dependent effect
  GI50: 65.8 µM
Homo sapiens
  Ratio IC50: 322

## CN1CCc2c(c3ccccc3n2Cc2ccc(C(=O)NO)cc2)C1 [TUBASTATIN A]
B16 [1]
  growth inhibition (GI): Dose-dependent effect
  GI50: 40.5 µM

## CCCCN(Cc1ccc(C(=O)NO)cc1)C(=O)Nc1ccccc1
B16 [1]
  growth inhibition (GI): Dose-dependent effect
B16 [2]
  inhibition: Active
B16 [3]
  inhibition: Active
B16 [4]
  inhibition: inactive
[5]
  inhibition: Dose-dependent effect

## COc1ccccc1NC(=O)NCc1ccc(C(=O)NO)cc1
Homo sapiens
  Ratio IC50: 2

## O=C(NO)c1ccc(CN(CCc2ccccc2)C(=O)Nc2ccccc2)cc1
B16 [1]
  growth inhibition (GI): Dose-dependent effect
  GI50: 15.4 µM
Homo sapiens
  Ratio IC50: 222

## COc1ccccc1NC(=O)N(CCc1c[nH]c2ccccc12)Cc1ccc(C(=O)NO)cc1
B16 [1]
  growth inhibition (GI): Dose-dependent effect
  GI50: 30.4 µM
Homo sapiens
  Ratio IC50: 19

## CCN(C(=O)NCc1ccc(C(=O)NO)cc1)c1ccccc1
B16 [1]
  growth inhibition (GI): Dose-dependent effect
  GI50: > 100 µM
Homo sapiens
  Ratio IC50: 330
